Test: 21-day starter chick feeding study: relative bioavailability of phosphate sources (slope ratio assay)
Settings: in vivo
Excerpt: (CDP) source in starter chick diets. […] Each dietary treatment was replicated six times with eleven chicks per pen during a 21-day experimental period. […] A slope ratio assay using linear regression analysis was used to determine relative bioavailabilities.

eggshell derived monocalcium phosphate [EDMCP]
availability of the phosphate fraction to the animal vs currently available commercial products: more available
